Results on one molecule are retold here after US9249135B2, “Therapeutic agent for mood disorders” (KYOWA HAKKO KIRIN CO., LTD., priority 2009, dated 2016).

SMILES strings stand for the structures.

One experiment concerns mice. In words: Forced swim test in mice. The format is in vivo, mouse (male ddY-strain). An excerpt: The forced swim test in rats and mice is widely used for test system which evaluates antidepressant activities (Arch. Int. Pharmacodyn. Ther. 229, p.327 (1977)). The forced swim test is means for evaluating depressive state using the length of time during which the animal ceases its escape behavior due to a sense of helplessness (immobility time) as an index thereof by placing a mouse or a rat in water in an inescapable cylinder. Since immobility time is shortened by existing antidepressants, this is known as an animal model of depression. The male ddY-strain mice (20 to 29 g; Japan SLC, Inc.) were used in this study. A transparent acrylic water bath 10 cm in diameter and 25 cm in height was filled with water at 23° C.±1° C. to a depth of 10 cm. Each mouse was slowly placed in the water bath. At 2 minutes after placement in the bath, immobility time (duration during which no escape behavior was observed) was measured for 4 minutes. The test compound was used for the test in suspension in distilled water for injection (manufactured by Otsuka Pharmaceutical Co.,) containing 0.5 w/v % MC (methylcellulose). […] The antidepressant activity of the test compound was evaluated with the immobility time for the vehicle control group and that for the test compound dose group as indexes. […]

The subject of experiment [1] is rats. The experiment is described as follows: Forced swim test in rats. The format is in vivo, rat (male SD-strain). The text has this: The forced swim test in rats and mice is widely used for test system which evaluates antidepressant activities (Arch. Int. Pharmacodyn. Ther. 229, p.327 (1977)). The forced swim test is means for evaluating depressive state using the length of time during which the animal ceases its escape behavior due to a sense of helplessness (immobility time) as an index thereof by placing a mouse or a rat in water in an inescapable cylinder. Since immobility time is shortened by existing antidepressants, this is known as an animal model of depression. The male SD-strain rats (200 to 270 g; Charles River Japan Inc.) were used in this study. A transparent acrylic water bath 18 cm in diameter and 40 cm in height was filled with water at 25° C.±1° C. to a depth of 19 cm. Each rat was slowly placed in the water bath, allowed to stand for 15 minutes, then removed from the bath and dried with a piece of paper towel. The animals were then dried under a table light for 15 minutes and returned to the respective cages (induction of pathological condition). On the following day, the rats were slowly placed in the same water bath. Immediately, immobility time was measured for 5 minutes. […] The antidepressive action of the test compound was evaluated with the immobility time for the vehicle control group and that for the test compound dose group as indexes. […]

Experiment [2] deals with rats. The experiment is described as follows: Learned helplessness model of depression in rats. It counts as in vivo, rat (male SD). The text has this: From the effects of existing antidepressants and the like on this system, this test is deemed a higher level animal model in rodents.
The male SD rats (190 to 260 g; Charles River Japan Inc.) were used in this study. On Day 1 of experiment, a partition board was placed in the center of the shuttle box to create two compartments so that the animals could not move from one compartment to another (220×200×260 mm). In each compartment, one rat was placed. The animals were retained in the shuttle box for 50 minutes and exposed to electrical shocks (IES) given via stainless floor grids with the light on. […]
On Day 2 of experiment, the partition board in the center of the shuttle box was removed and replaced by a hurdle 2 cm in height to create two comportments so that the animals could move from one compartment to another. […] Animal's behavior was evaluated according to the following procedures.
FR1: A buzzer was activated for 10 seconds. […] This procedure counted as one trial, and was continuously repeated 15 times.
FR2: Electric stimuli (0.5 mA) were applied for 10 seconds to a rat via the floor grids in the compartment where the animal stayed. […] This procedure counted as one trial, and was continuously repeated 15 times. […]

`Cc1ccc(C(=O)Nc2nc(-c3ccco3)c(C(=O)C3CCOCC3)s2)cn1` [(IC)]: the immobility time with mice (mice, 0.1 mg/kg orally 1 hour before the test, measured for 4 minutes, vehicle 179.0 ± 15.2) is 53.1 ± 11.0 s; with rats [1] (rats, 0.1 mg/kg orally 1 hour before the test, measured for 5 minutes, vehicle 204.0 ± 21.0), 81.5 ± 15.1 s. In addition, the “immobility time compared with that for the vehicle control group” value in the experiment with mice (mouse, in words) is on record as “shortened”; with rats [1] (rat, in words) it was “shortened”. The “escape rate (escape response %)” value in the experiment on rats [2] (rats with IES loading, FR2 session, dose of 0.3 mg/kg orally 1 hour before the FR1 session) came out at 88.7±6.7%. Besides, the “action on the escape rate reductions by IES loading in the FR2 session” value in the experiment on rats [2] (rats, single oral dose, in words) was “significant ameliorating action”.
